In ChEMBL document CHEMBL1130929, “Conformationally restricted analogues of nicotine and anabasine” (Bioorg Med Chem Lett, 1998) one finds IC50, Efficacy and EC50 data, which are given here for 3 molecules.

Assay [1] in a line: In vitro ability to displace tritiated nicotine from rat brain binding sites, and calcium flux (c.f).
The species entered for assay [2] is Rattus norvegicus. The assay can be described thus: In vitro ability to release dopamine from rat striatal slices. The format is functional.
Assay [3] has as its target T1, Neuronal acetylcholine receptor; alpha4/beta4 (Homo sapiens, UniProt P30926+P43681). The assay can be described thus: Compound was evaluated for agonist activity against activated human recombinant Nicotinic acetylcholine receptor alpha4-beta4 in Xenopus Oocytes. The format is functional, cell-based.
Assay [4] deals with Neuronal acetylcholine receptor; alpha3/beta4 (Homo sapiens) (UniProt P30926+P32297). The assay can be described thus: In vitro agonist activity against activated human recombinant Nicotinic acetylcholine receptor alpha3-beta4 in Xenopus Oocytes. The format is functional, cell-based.
Assay [5] concerns the target T2, Neuronal acetylcholine receptor; alpha2/beta4 (Homo sapiens, UniProt P30926+Q15822). Nature of the assay: (§1) Compound was evaluated for agonist activity against activated human recombinant Nicotinic acetylcholine receptor alpha2-beta4 in Xenopus Oocytes. The class given is functional, cell-based.
For assay [6], the target named is T3, Neuronal acetylcholine receptor; alpha4/beta2 (Homo sapiens, UniProt P17787+P43681). Nature of the assay: Compound was evaluated for agonist activity against activated human recombinant aNicotinic acetylcholine receptor alpha4-beta2 in Xenopus Oocytes. The format is functional, cell-based.
T3 sequence (P17787 whole entry): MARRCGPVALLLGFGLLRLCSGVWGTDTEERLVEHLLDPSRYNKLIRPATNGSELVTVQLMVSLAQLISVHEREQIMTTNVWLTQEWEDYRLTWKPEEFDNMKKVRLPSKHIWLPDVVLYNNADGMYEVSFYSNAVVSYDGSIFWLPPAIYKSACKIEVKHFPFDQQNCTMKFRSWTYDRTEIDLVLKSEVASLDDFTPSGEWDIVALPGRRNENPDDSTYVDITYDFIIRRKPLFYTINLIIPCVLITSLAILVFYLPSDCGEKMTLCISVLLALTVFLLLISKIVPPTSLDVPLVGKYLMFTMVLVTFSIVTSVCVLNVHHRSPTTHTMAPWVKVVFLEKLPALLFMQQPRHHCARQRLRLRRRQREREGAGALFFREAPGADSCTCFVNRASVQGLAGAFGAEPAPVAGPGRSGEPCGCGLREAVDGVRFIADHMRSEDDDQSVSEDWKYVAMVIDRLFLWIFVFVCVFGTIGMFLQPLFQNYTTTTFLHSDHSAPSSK
T3 sequence (P43681 whole entry): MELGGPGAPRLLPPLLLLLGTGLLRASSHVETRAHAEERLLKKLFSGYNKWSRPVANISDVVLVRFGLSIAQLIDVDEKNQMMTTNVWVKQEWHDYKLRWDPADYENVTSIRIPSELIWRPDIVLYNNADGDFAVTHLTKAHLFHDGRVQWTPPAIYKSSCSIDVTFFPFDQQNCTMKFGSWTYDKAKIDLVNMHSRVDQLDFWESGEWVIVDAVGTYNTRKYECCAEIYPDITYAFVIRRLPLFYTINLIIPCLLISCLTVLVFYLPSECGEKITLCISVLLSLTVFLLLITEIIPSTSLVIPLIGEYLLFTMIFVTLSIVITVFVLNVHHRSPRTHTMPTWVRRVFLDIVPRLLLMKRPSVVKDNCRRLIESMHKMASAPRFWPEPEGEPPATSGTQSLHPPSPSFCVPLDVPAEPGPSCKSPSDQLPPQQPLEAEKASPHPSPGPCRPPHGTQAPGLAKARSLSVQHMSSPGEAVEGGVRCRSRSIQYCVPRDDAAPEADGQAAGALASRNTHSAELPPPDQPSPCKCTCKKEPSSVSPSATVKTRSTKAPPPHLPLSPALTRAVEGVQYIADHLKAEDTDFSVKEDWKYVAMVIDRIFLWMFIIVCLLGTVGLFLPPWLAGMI
Assay [7] deals with T1, Neuronal acetylcholine receptor; alpha4/beta4. The assay can be described thus: Compound was evaluated for its agonist activity against activated human recombinant Nicotinic acetylcholine receptor alpha4-beta4 in Xenopus Oocytes. The class given is functional, cell-based.
Assay [8] is filed under the species Rattus norvegicus. The assay can be described thus: Compound was tested for its ability to release dopamine from rat striatal slices at 300 uM. The format is functional.
Assay [9] is described as follows: In vitro agonist activity against activated human recombinant alpha3-beta4 neuronal acetylcholine receptors (nAChR) in Xenopus Oocytes. The class given is functional, cell-based.
Assay [10] in a line: In vitro ability to displace tritiated nicotine from rat brain binding sites.
Assay [11] deals with T2, Neuronal acetylcholine receptor; alpha2/beta4. The description is as §1. The class given is functional, cell-based. This is another data set of the same source.
Assay [12] addresses T3, Neuronal acetylcholine receptor; alpha4/beta2. Nature of the assay: Compound was evaluated for agonist activity against activated human recombinant Nicotinic acetylcholine receptor alpha4-beta2 in Xenopus Oocytes. The format is functional, cell-based.

T1 sequence (P30926 whole entry): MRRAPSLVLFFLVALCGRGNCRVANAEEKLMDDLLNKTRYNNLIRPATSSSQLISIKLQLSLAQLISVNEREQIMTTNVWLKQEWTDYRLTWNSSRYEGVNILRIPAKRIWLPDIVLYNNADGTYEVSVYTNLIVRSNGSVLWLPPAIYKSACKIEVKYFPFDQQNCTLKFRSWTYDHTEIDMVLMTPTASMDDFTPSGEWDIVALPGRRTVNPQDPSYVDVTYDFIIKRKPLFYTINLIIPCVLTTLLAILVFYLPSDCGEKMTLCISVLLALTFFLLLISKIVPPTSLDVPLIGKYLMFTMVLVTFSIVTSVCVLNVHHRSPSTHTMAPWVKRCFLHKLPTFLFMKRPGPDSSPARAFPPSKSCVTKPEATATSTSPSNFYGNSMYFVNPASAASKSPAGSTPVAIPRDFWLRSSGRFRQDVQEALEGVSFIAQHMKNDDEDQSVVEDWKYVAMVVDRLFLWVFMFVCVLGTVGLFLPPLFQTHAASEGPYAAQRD
T1 sequence (P43681 whole entry): as the sequence (P43681 whole entry) above
T2 sequence (P30926 whole entry): as the sequence (P30926 whole entry) above
T2 sequence (Q15822 whole entry): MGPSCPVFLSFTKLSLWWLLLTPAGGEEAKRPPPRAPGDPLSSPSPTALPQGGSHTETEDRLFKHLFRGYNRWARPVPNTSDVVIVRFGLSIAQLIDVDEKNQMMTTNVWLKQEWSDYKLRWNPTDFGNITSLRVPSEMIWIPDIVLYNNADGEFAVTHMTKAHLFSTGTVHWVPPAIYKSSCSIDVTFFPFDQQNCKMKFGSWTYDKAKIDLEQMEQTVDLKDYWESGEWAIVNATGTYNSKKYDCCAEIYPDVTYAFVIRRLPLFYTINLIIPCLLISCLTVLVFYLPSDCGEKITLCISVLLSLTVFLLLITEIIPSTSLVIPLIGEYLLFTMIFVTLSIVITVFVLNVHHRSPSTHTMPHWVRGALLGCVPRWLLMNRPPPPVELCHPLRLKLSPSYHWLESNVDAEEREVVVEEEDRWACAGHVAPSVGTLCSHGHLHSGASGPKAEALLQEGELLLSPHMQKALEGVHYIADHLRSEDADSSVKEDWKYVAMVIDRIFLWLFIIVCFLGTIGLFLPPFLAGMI

Usually IC50 stands for the point on the concentration scale where inhibition reaches its midpoint. As for `CN1CCC[C@H]1c1cccnc1` [NICOTINE], the IC50 in [1] was 0.004 µM.
On to `c1cc2c(cn1)C1NCCC1CC2` (stereo not drawn), for which the Efficacy in the assay filed under Rattus norvegicus [2] is on record as 56%. The IC50 in [1] turned out to be 0.51 µM.
A word on the EC50: it is the concentration needed to bring the measured effect to its halfway point. As to `COc1cc2c(cn1)C1NCCC1CC2` (stereo not drawn), the Efficacy in assay [3] amounted to 44%; in assay [4], 5%; in the assay filed under Rattus norvegicus [8], 73; in assay [11] it was 22%; in assay [12], 8%. In addition, the EC50 in assay [5] was 87 µM; in assay [6] it was 3 µM; in [7], 32 µM; in [9], 81 µM. Besides, the IC50 in assay [10] was determined as 1.9 µM.
